Format in all cases: cell-based
For test [1], the system named is E. faecalis resistant (VanB) (CL4877). The test can be described thus: MIC, standard microdilution assay, E. faecalis resistant (VanB). The conditions noted are these: strain CL4877; for MIC: Enterococcus faecalis, 22 h. How it is done:
(§1) Briefly, compound 7 and compound 10 were synthesized by utilizing procedures described, for example, in Thompson, C. et al., J. Am. Chem. Soc., 1999, 121, 1237. Compound 8 was prepared from tri-O-acetyl-D-glucal by a one-step procedure described by Chen, Z. Ph.D. Dissertation, Princeton University, Princeton, N.J. 2001.
On the technique in general: Broth dilution looks for growth in wells or tubes with falling amounts of substance.

For test [2], the system named is E. faecium resistant (VanA) (CL4931). The test can be described thus: MIC, standard microdilution assay, E. faecium resistant (VanA). The conditions noted are these: strain CL4931; for MIC: Enterococcus faecium, 22 h. The procedure: as §1
Test [3] relates to E. faecium sensitive (49624). The test can be described thus: MIC, standard microdilution assay, E. faecium sensitive. The conditions noted are these: strain 49624; for MIC: Enterococcus faecium, 22 h. How it is done: as §1
Test [4] deals with E. faecalis sensitive (29212). As to the kind of experiment: MIC, standard microdilution assay, E. faecalis sensitive. The conditions noted are these: strain 29212; for MIC: Enterococcus faecalis, 22 h. How it is done:
as §1

The test system of another test is S. aureus (29213). The test can be described thus: MIC, standard microdilution assay, S. aureus. The conditions noted are these: strain 29213; for MIC: Staphylococcus aureus, 22 h. The procedure: as §1
A further test has as its system transglycosylation. The test can be described thus: Inhibition of transglycosylation in a permeabilized E. coli model.

In brackets after ≈: the same amount, converted by molar mass.

Turning to `COc1cccc(OC)c1OCCOC1OC(C(N)=O)C(OC)C(NC(=O)Nc2ccc(Cl)c(C(F)(F)F)c2)C1OC1OC(CO)C(O)C(O)C1NC(=O)c1cccc(C(F)(F)F)c1` (stereo not drawn) [Compound 6], the MIC (usually the least concentration at which growth counts as inhibited) in test [1] (Table 2) was determined as 250 µg/mL (≈ 266 µM); in test [2] (Table 2), 250 µg/mL (≈ 266 µM); in test [3] (Table 2), 250 µg/mL (≈ 266 µM); in test [4] (Table 2), 125 µg/mL (≈ 133 µM); in the test with S. aureus (29213) (Table 2), 125 µg/mL (≈ 133 µM).

Consider `CCCCCCCCCCCCOP(=O)(O)OC1OC(C(N)=O)C(OC)C(NC(=O)Nc2ccc(Cl)c(C(F)(F)F)c2)C1OC1OC(CO)C(O)C(O)C1NC(=O)c1cccc(C(F)(F)F)c1` (stereo not drawn) [Compound 4], for which the MIC is 3.1 µg/mL (≈ 3.07 µM) in test [1] (Table 2); 6.2 µg/mL (≈ 6.14 µM) in test [2] (Table 2); 6.2 µg/mL (≈ 6.14 µM) in test [3] (Table 2); 6.2 µg/mL (≈ 6.14 µM) in test [4] (Table 2); 6.2 µg/mL (≈ 6.14 µM) against S. aureus (29213) (Table 2). Moreover, the inhibition of transglycosylation result in the test with transglycosylation is recorded as “inhibits transglycosylation”.

Take `CN[C@H](CC(C)C)C(=O)N[C@H]1C(=O)N[C@@H](CC(N)=O)C(=O)N[C@H]2C(=O)N[C@H]3C(=O)N[C@H](C(=O)N[C@H](C(=O)O)c4cc(O)cc(O)c4-c4cc3ccc4O)[C@H](O)c3ccc(c(Cl)c3)Oc3cc2cc(c3O)Oc2ccc(cc2Cl)[C@H]1O` [Vancomycin Aglycon, Vancomycin aglycone]: in test [1] (Table 2), the “22-hr MIC E. faecalis resistant (VanB)” value was more than 500 µg/mL. Further, the “22-hr MIC E. faecium resistant (VanA)” value in test [2] (Table 2) is more than 500 µg/mL. The “22-hr MIC E. faecium sensitive” value in test [3] (Table 2) turned out to be 2 µg/mL. Also, in test [4] (Table 2), the “22-hr MIC E. faecalis sensitive” value was 8 µg/mL. Also, the “22-hr MIC S. aureus” value with S. aureus (29213) (Table 2) came to 2 µg/mL.

In the case of vancomycin [Compound 1a], in test [1] (Table 1, 35° C., 22h), the “MIC E. faecalis resistant (VanB)” value was more than 500 µg/mL. Besides, the “MIC E. faecium resistant (VanA)” value in test [2] (Table 1, 35° C., 22h) was more than 500 µg/mL. In test [3] (Table 1, 35° C., 22h), the “MIC E. faecium sensitive” value turned out to be 2 µg/mL. Besides, the “MIC E. faecalis sensitive” value in test [4] (Table 1, 35° C., 22h) was 16 µg/mL. For the same compound, in the test on S. aureus (29213) (Table 1, 35° C., 22h), the “MIC S. aureus” value stood at 4 µg/mL.

Source of the values: patent US20030158093A1, “Bifunctional glycopeptide antibiotics and combinatorial libararies thereof” (priority 2001, published 2003).
